Data as given in US4925868A, “4-Hydroxy-3-pyrrolin-2-ones and treatment of circulatory disorders therewith” (Takeda Chemical Industries, Ltd., priority 1986, dated 1990).

How the values were obtained:
mice = experiment: Acute toxicity in mice; assay type: in vivo; conditions: for sedation and ptosis: six mice per group
Experimental: Male Crj-ICR mice (4-week-old, 21 to 26 g) were used. The animals, divided into groups, each consisting of six mice, were administered orally with compounds (4-b, 4-1) at the dosages of 300 and 1000 mg/kg, respectively. Then, each group was housed in a cage and observed for 24 hours.
The test drugs were suspended in gum arabic and administered at a volume of 0.1 ml/10 g.

rat hearts = experiment: Activity to inhibit occurrence of ventricular arrhythmia during coronary artery occlusion-reperfusion in rat hearts; assay type: in vivo, rat (male SD); parameters: Ventricular fibrillation, incidence / Ventricular tachycardia, incidence: unit not given here; conditions: for Ventricular fibrillation, incidence / Ventricular tachycardia, incidence: (10 min.) after reperfusion; for Ventricular fibrillation, incidence / Ventricular tachycardia, incidence / Ventricular fibrillation, duration / Ventricular tachycardia, duration: average ±SEM; for Mortality: killed animals/test animals; for mortality due to VF (in words) / occurrence of arrhythmia (in words) / period of time during which arrhythmia lasted (in words) / frequency of occasional PVCs (in words): 10 mg/kg; for frequency of occasional PVCs (in words): vs vehicle around 10 times/minute; for effect on arrhythmia (in words): oral
Description: Activity to inhibit occurrence of ventricular arrhythmia during coronary artery occlusion-reperfusion in rat hearts
Male SD rats (9- to 13-week old, 250 to 370 g) were used. The animals were subjected to thoractonomy under artificial respiration while anesthesia was maintained by administering pentobarbital. […] By recording standard limb lead II electrocardiograms, occurrence of ventricular arrhythmia was examined. […]
Incidences of ventricular fibrillation and ventricular tachycardia are shown by the percentage of the number of animals presenting the symptoms relative to the number of animals subjected to the test, and the duration of the symptoms was shown by average ±SEM in seconds. Extrasystole is shown by the number of systole/min., and the mortality is shown by the percentage of the number of killed animals relative to the number of test animals.

[1] = test system: lipid peroxide formation in rat brain tissue homogenate; experiment: Activity to inhibit lipid peroxide formation in rat brain tissue homogenate (TBA method); assay type: biochemical, rat (male SD); conditions: 10^-5 M; n = 3, mean; 5% brain homogenate, pH 7.4, 37° C., 1 hour
Experimental: Activity to inhibit lipid peroxide formation in rat brain tissue homogenate: Male SD rats (12-week-old) were subjected to exsanguination under anesthesia with pentobarbital, then the brain was excised. The brain tissue was homogenized in a phosphate buffer (pH 7.4) to prepare a 5% homogenate. After incubation of the homogenate at 37° C. for 1 hour, the amount of lipid peroxides formed therein was determined by the thiobarbituric acid (TBA) method in accordance with the report of Ohkawa et al. on Analytical Biochemistry, 95, 351, (1979). The test drug was added to the 5% homogenate before incubation so as to make the final concentration to be 10^-5 M. The activity to inhibit the formation of lipid peroxide was judged by comparing the amount of the lipid peroxide in the treated group with that of the reference group to which was added the solvent (DMSO), and shown by % inhibition.

## CCCCCCCCCCCCOc1ccc(C2=C(O)CN(Cc3cc(OC)c(OC)c(OC)c3)C2=O)cc1 [Compound 4-l]
mice; mouse, in vivo
  deaths: no test animals of either group were killed
mice; oral, 300 and 1000 mg/kg
  time to recovery from sedation and ptosis: ≤ 3 h
  sedation and ptosis: observed on half number of the test animals
Rat hearts; 3 mg/Kg
  Extrasystole: 5.4 ± 1.1 times/min.
  Ventricular fibrillation, incidence: 0.8 ± 0.4
  Ventricular tachycardia, incidence: 3.5 ± 0.8
  Ventricular fibrillation, duration: 1.7 ± 1.2 s
  Ventricular tachycardia, duration: 7.1 ± 2.2 s
  Mortality: 0/8
Rat hearts
  mortality due to VF (in words): low
  occurrence of arrhythmia (in words): suppressed remarkably
  period of time during which arrhythmia lasted (in words): shortened
  frequency of occasional PVCs (in words): significantly less
[1]
  Inhibition rate of lipid peroxide formation: 96.7%

## CCCCCCCCCCCCOc1ccc(C2=C(O)CN(c3ccccc3)C2=O)cc1 [Compound 4-e]
[1]
  Inhibition rate of lipid peroxide formation: 100%

## CCCCCCCCCCCCOc1ccc(C2=C(O)CN(Cc3c(C)c(OC)c(C)c(C)c3OC)C2=O)cc1 [Compound 4-m]
[1]
  Inhibition rate of lipid peroxide formation: 100%

## CCCCCCCCCCCCOc1ccc(C2=C(O)CN(Cc3ccsc3)C2=O)cc1 [Compound 4-i]
[1]
  Inhibition rate of lipid peroxide formation: 89.4%

## Vitamin E [reference compound]
Rat hearts; 50 mg/kg
  Extrasystole: 7.0 ± 4.1 times/min.
  Ventricular fibrillation, incidence: 2.0 ± 0.7
  Ventricular tachycardia, incidence: 3.7 ± 1.5
  Ventricular fibrillation, duration: 43.4 ± 36.0 s
  Ventricular tachycardia, duration: 22.3 ± 9.7 s
  Mortality: 1/10
  effect on arrhythmia (in words): no significant effect
[1]
  Inhibition rate of lipid peroxide formation: 44.9%

## CCCCCCCCCCCCOc1ccc(C2=C(O)CN(CCc3ccccc3)C2=O)cc1 [Compound 4-g]
[1]
  Inhibition rate of lipid peroxide formation: 100%

## CCCCCCCCCCCCOc1ccc(C2=C(O)CN(C)C2=O)cc1 [Compound 4-b, N-methyl-3-(4-dodecyloxyphenyl)-4-hydroxy-3-pyrrolin-2-one]
mice; oral, 300 and 1000 mg/kg
  time to recovery from sedation and ptosis: ≤ 3 h
  sedation and ptosis: observed on half number of the test animals
mice; oral, 300 and 1000 mg/kg, 24-hour observation
  deaths: no test animals of either group were killed
[1]
  Inhibition rate of lipid peroxide formation: 97.9%

## CCCCCCCCCCCCOc1ccc(C2=C(O)CN(Cc3ccc(C(=O)O)cc3)C2=O)cc1 [Compound 4-k]
[1]
  Inhibition rate of lipid peroxide formation: 63.8%

## CCCCCCCCCCCCOc1ccc(C2=C(O)CN(Cc3ccc(Cl)cc3)C2=O)cc1 [Compound 4-n]
[1]
  Inhibition rate of lipid peroxide formation: 100%

## CCCCCCCCCCCCOc1ccc(C2=C(O)CN(CCCc3ccccc3)C2=O)cc1 [Compound 4-h]
[1]
  Inhibition rate of lipid peroxide formation: 100%

## CCCCCCCCCCCCCCOc1ccc(C2=C(O)CN(C)C2=O)cc1 [Compound 4-a]
[1]
  Inhibition rate of lipid peroxide formation: 97.9%

## CCCCCCCCCCCCOc1ccc(C2=C(O)CN(CCCCCCCCCCCC)C2=O)cc1 [Compound 4-d]
[1]
  Inhibition rate of lipid peroxide formation: 100%

## O=C1O[C@H]([C@@H](O)CO)C(O)=C1O [Vitamin C, reference compound]
Rat hearts; 50 mg/kg
  Extrasystole: 11.0 ± 0.8 times/min.
  Ventricular fibrillation, incidence: 5.4 ± 0.8
  Ventricular tachycardia, incidence: 9.5 ± 1.8
  Ventricular fibrillation, duration: 74.1 ± 36.0 s
  Ventricular tachycardia, duration: 12.0 ± 2.9 s
  Mortality: 1/12
  effect on arrhythmia (in words): no significant effect
[1]
  Inhibition rate of lipid peroxide formation: -71.6%

## CCCCCCCCCCCCOc1ccc(C2=C(O)CN(CC(C)C)C2=O)cc1 [Compound 4-c]
[1]
  Inhibition rate of lipid peroxide formation: 100%

## CCCCCCCCCCCCCCCCCCOC1=C(O)CN(Cc2cc(OC)c(OC)c(OC)c2)C1=O [Compound 4-p]
Rat hearts; 10 mg/Kg
  Extrasystole: 3.3 ± 0.7 times/min.
  Ventricular fibrillation, incidence: 0.9 ± 0.3
  Ventricular tachycardia, incidence: 4.1 ± 1.2
  Ventricular fibrillation, duration: 2.1 ± 1.3 s
  Ventricular tachycardia, duration: 7.3 ± 2.4 s
  Mortality: 0/9
Rat hearts
  mortality due to VF (in words): low
  occurrence of arrhythmia (in words): suppressed remarkably
  period of time during which arrhythmia lasted (in words): shortened
  frequency of occasional PVCs (in words): significantly less

## CCCCCCCCCCCCOc1ccc(C2=C(O)CN(Cc3ccc(C(=O)OC)cc3)C2=O)cc1 [Compound 4-j]
[1]
  Inhibition rate of lipid peroxide formation: 52.8%

## CCCCCCCCCCCCOc1ccc(C2=C(O)CN(Cc3ccccc3)C2=O)cc1 [Compound 4-f]
[1]
  Inhibition rate of lipid peroxide formation: 75.5%
